Like-named read-outs stand apart in the source and are kept apart here.

These results are taken from US10660967B2, “Curcumin conjugates and methods of use thereof” (priority 2016, dated 2020).

Series [1] concerns Pseudomonas aeruginosa ATCC27853. Put plainly: Antimicrobial MIC, agar dilution. In general terms: In agar dilution, organisms are placed on agar that contains the substance at set levels.
The test system of series [2] is Staphylococcus aureus ATCC25923. Description: Antimicrobial MIC, agar dilution.
Series [3] deals with lipopolysaccharide-stimulated peritoneal macrophages. Put plainly: Production of nitric oxide by lipopolysaccharide-stimulated peritoneal macrophages (Greiss reagent). The arrangement: Potency (%): % inhibition of nitric oxide production relative to lipopolysaccharide-stimulated macrophages: concentration or dose not given beside the values. The format is cell-based. Particulars: LPS-stimulated peritoneal macrophages; for Nitric oxide (nitrite) concentration, μM (average ± SD): 24 h, nitrite by Greiss reagent. An outline of the steps: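 NO output was quantified as accumulated nitrite, reacting supernatant with Greiss reagent (sulfanilamide/α-naphthylamine) and reading at 532 nm. Beforehand, cells had been incubated 24 h at 37° C. in nitrite-free, 0.1% BSA medium with 0.5–10 ng/ml LPS, with or without catecholamines at […].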

The test system of series [4] is Salmonella typhi ATCC19430. Description: Antimicrobial MIC, agar dilution. The format is cell-based. Particulars: Salmonella enterica, read-out: Minimum inhibitory concentration (MIC).
The test system of series [5] is Streptococcus pyogenes ATCC19615. Description: Antimicrobial MIC, agar dilution.
Series [6] deals with HepG2 (hepatocellular) carcinoma cell line. Put plainly: Anti-tumor properties, MTT. The format is cell-based. Particulars: Homo sapiens; HepG2, 100 μM, 72 h; read-out: Percentage growth of tumor cell lines treated with the tested compounds (±SD). The procedure:
(§1) Anti-tumor properties of curcumin conjugates were evaluated. The synthesized curcumin-amino acid conjugates and curcumin itself were screened for their antitumor properties against human tumor cell lines utilizing HepG2 (hepatocellular), MCF7 (breast), and HCT116 (colon) carcinoma cell lines by the standard mitochondrial dependent reduction of yellow MTT [3-(4,5-dimethylthiazol-2-yl)-2,5-diphenyl-tetrazolium bromide] to purple formazan technique. Cancer cells were obtained from the Egyptian Company for Production of Vaccines, Sera and Drugs (VACSERA), Cairo, Egypt. Media, chemicals and supplies for the bio-assay were obtained from Biowest, Gibco and Lonza Companies. Cells were suspended in RPMI-1640 medium for HepG2, DMEMF12 for MCF-7, and DMEM for HCT116 in addition to 1% antibiotic-antimycotic mixture (10 […] potassium penicillin, 10 […] streptomycin sulfate and […] amphotericin B), 10% fetal bovine serum and 1% L-glutamine at 37° C., under 5% CO2 and 95% humidity. Cells were seeded at a concentration of 10×10^3 cells per well in fresh complete growth medium in 96-well tissue culture microtiter plates for 24 h. Media was aspirated, 180 μL fresh medium (without serum) were added and cells were incubated with different concentrations of sample to give a final concentration of 100 μM. 0.5% DMSO was used as a negative control and doxorubicin was used as a positive control (standard reference). Triplicate wells were prepared for each individual tested compound/dose. After 72 h of incubation, the medium was aspirated, 40 μL MTT salt (2.5 mg ml^1) were added to each well and incubated for an additional 4 h at 37° C. To stop the reaction and dissolve the formed crystals, 200 μL of 10% sodium dodecyl sulfate (SDS) in deionized water were added to each well and incubated overnight at 37° C. The absorbance was then measured at 595 nm with a reference wavelength of 620 nm. Data were collected as mean values for experiments performed in triplicates for each compound which had been measured by MTT assay.
(§2) The percentage of cell survival was calculated according to equation (4): […]
(§3) The IC50 was determined using Graph-Pad PRISM version-5 software. Statistical calculations for determination of the mean and standard deviation (SD) values were determined by SPSS 16 software.

In series [7] the test system is MCF7 (breast) carcinoma cell line. Description: Anti-tumor properties, MTT. Particulars: Homo sapiens; MCF7, 100 μM, 72 h; read-out: Percentage growth of tumor cell lines treated with the tested compounds (±SD). The format is cell-based. The procedure: as §1, §2, §3
The test system of series [8] is HCT116 (colon) carcinoma cell line. Description: Anti-tumor properties, MTT. The format is cell-based. Particulars: Homo sapiens, HCT-116; HCT116, 100 μM, 72 h; read-out: Percentage growth of tumor cell lines treated with the tested compounds (±SD). The protocol: as §1, §2, §3
Series [9] deals with Candida albicans (local isolate). Description: Antimicrobial MIC, agar dilution. Particulars: Candida albicans, read-out: Minimum inhibitory concentration (MIC).
A further series concerns MCF-7 cells. Put plainly: Effect on doxorubicin induced cytotoxicity (MTT). Particulars: for Percentage of viable cells MCF-7 (average ± SD): 10 μM DOX in combination with 100 μM curcumin derivative, 48 hr; for viability at 100 µM: Homo sapiens, MCF7, 48 h, read-out: Percentage of viable cells MCF-7 (average ± SD). The protocol:
The effects of curcumin conjugates on doxorubicin induced cytotoxicity were evaluated. In order to further examine whether curcumin derivatives can enhance conventional chemotherapeutic agents, MCF-7 cells were treated with 100 μM curcumin derivatives alone or in combination with 10 μM doxorubicin (DOX) for 48 hr. Control cultures received only medium, vehicle (DMSO), or vehicle+DOX. The percentage of viable cells was determined by MTT assay according to equation (5): […]

The next series deals with gastric mucosa. Put plainly: Ulcerogenic liability (ulcer index). The format is in vivo, albino mice. Particulars: orally, three successive days, 10 mg/kg indomethacin mol equivalent. The protocol: The ulcerogenic liability was investigated in albino mice using the standard method. […] The animals were fasted 18 h before drug administration. […] The control group animals were given saline solution only with few drops of Tween 80. […] The gastric mucosa was examined with a magnifying lens (10×) for the presence of lesions and erosions.
1. percentage incidence of ulcer divided by 10;
2. average number of ulcers per stomach; and
3. average severity of ulcers;

Series [10] relates to PHA-stimulated splenocytes. Description: Proliferative response of PHA-stimulated splenocytes (MTT assay). Particulars: for Stimulation Index (average ± SD): PHA 5 μg/ml, 72 hr, compounds at 5 μM (method says 10 μM), ratio of O.D. versus vehicle control. The format is cell-based. An outline of the steps: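 Readout was MTT absorbance (570 nm, reference 690 nm) after 72 h culture at 37° C. Splenocytes at 1×10^6 cells/well received test compound (10 μM final) alone or plus PHA 5 μg/ml as T-cell mitogen. Values are OD ratios of compound over vehicle control (stimulation index).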
On the technique in general: Formazan colour is commonly taken as a measure of viable cells.

Where [11] appears, read: ATCC27853, 18 h, read-out: Minimum inhibitory concentration (MIC).
The mark [12] stands for this setting: ATCC27853, read-out: Minimum inhibitory concentration (MIC).
Setting [13] is: ATCC25923, 18 h, read-out: Minimum inhibitory concentration (MIC).
Where [14] appears, read: ATCC25923, read-out: Minimum inhibitory concentration (MIC).
[15] abbreviates: ATCC19615, 18 h, read-out: Minimum inhibitory concentration (MIC).
[16] abbreviates: ATCC19615, read-out: Minimum inhibitory concentration (MIC).

Regarding `COc1cc(/C=C/C(=O)CC(=O)/C=C/c2ccc(OC(=O)[C@H](CCSC)NC(=O)OCC3c4ccccc4-c4ccccc43)c(OC)c2)ccc1OC(=O)[C@H](CCSC)NC(=O)OCC1c2ccccc2-c2ccccc21` [Fmoc-Met-Cur, ((1E,6E)-3,5-dioxohepta-1,6-diene-1,7-diyl)bis(2-methoxy-4,1-phenylene) (2S,2′S)-bis(2-((((9H-fluoren-9-yl)methoxy)carbonyl)amino)-4-(methylthio)butanoate)], the MIC in [1] (setting [11]) is 2 µg/mL; in series [1] (setting [12]), 1.86 µM; in [2] (setting [13]), 0.25 µg/mL; in series [2] (setting [14]), 0.233 µM; in series [4] (18 h), 2 µg/mL; in [4], 1.86 µM. Further, the MIC was 0.125 µg/mL in series [5] (setting [15]), 0.116 µM in [5] (setting [16]), 0.5 µg/mL in series [9] (18 h) and 0.465 µM in series [9]. The “Potency (%): % inhibition of nitric oxide production relative to lipopolysaccharide-stimulated macrophages” value in series [3] came to 47.91%. In addition, the “Nitric oxide (nitrite) concentration, μM (average ± SD)” value (“Nitric oxide … (average ± SD)” for short) in series [3] worked out at 14.23 ± 1.05 µM. Also, the values for the activity at 100 µM in [6], in series [7] and in series [8] were 92.4 ± 5.1%, 88.9 ± 5% and 96.4 ± 1.4%, respectively. Further, the “Percentage of viable cells MCF-7 (average ± SD)” value (shortened to “Percentage … (average ± SD)”) in the series with MCF-7 cells was 38.75 ± 1.65. Moreover, the viability at 100 µM with MCF-7 cells turned out to be 99.3 ± 3.16%. Besides, the “% Incidence of ulcer divided by 10” value in the series on gastric mucosa turned out to be 0. The “Average of ulcer number” value in the series on gastric mucosa is listed as 0. Moreover, the “Average severity of ulcer” value with gastric mucosa came out at 0. In the series with gastric mucosa (6 animals per group), the “Number of animals with ulcer” value is given as 0/6. In addition, the Ulcer index in the series on gastric mucosa (sum of the three values) came to 0. Moreover, the “Stimulation Index (average ± SD)” value in [10] came to 1.07 ± 0.16.

Consider `COc1cc(/C=C/C(=O)CC(=O)/C=C/c2ccc(OC(=O)[C@H](Cc3ccccc3)NC(=O)OCC3c4ccccc4-c4ccccc43)c(OC)c2)ccc1OC(=O)[C@H](Cc1ccccc1)NC(=O)OCC1c2ccccc2-c2ccccc21` [Fmoc-Phe-Cur, ((1E,6E)-3,5-dioxohepta-1,6-diene-1,7-diyl)bis(2-methoxy-4,1-phenylene) (2S,2′S)-bis(2-((((9H-fluoren-9-yl)methoxy)carbonyl)amino)-3-phenylpropanoate)], for which the MIC in series [1] (setting [11]) is 2 µg/mL; in series [1] (setting [12]), 1.81 µM; in series [2] (setting [13]) it was 0.25 µg/mL; in [2] (setting [14]), 0.226 µM; in series [4] (18 h), 0.25 µg/mL; in series [4], 0.226 µM. In addition, the MIC in series [5] (setting [15]) worked out at 0.125 µg/mL; in series [5] (setting [16]), 0.113 µM; in series [9] (18 h), 0.5 µg/mL; in [9], 0.452 µM. Moreover, the “Potency (%): % inhibition of nitric oxide production relative to lipopolysaccharide-stimulated macrophages” value in series [3] came to 31.01%. Moreover, in [3], the “Nitric oxide … (average ± SD)” value stood at 18.84 ± 0.69 µM. The activity at 100 µM was 108 ± 3.6% in [6], 84.7 ± 3.6% in series [7] and 110 ± 7.3% in series [8]. In addition, in the series on MCF-7 cells, the “Percentage … (average ± SD)” value stood at 42.49 ± 2.71. Besides, in the series with MCF-7 cells, the viability at 100 µM is 98.3 ± 2.21%. The “Stimulation Index (average ± SD)” value in series [10] stood at 1.78 ± 0.10.

In the case of `COc1cc(/C=C/C(=O)CC(=O)/C=C/c2ccc(OC(=O)[C@H](C)NC(=O)OCC3c4ccccc4-c4ccccc43)c(OC)c2)ccc1OC(=O)[C@H](C)NC(=O)OCC1c2ccccc2-c2ccccc21` [Fmoc-Ala-Cur, ((1E,6E)-3,5-dioxohepta-1,6-diene-1,7-diyl)bis(2-methoxy-4,1-phenylene) (2S,2′S)-bis(2-((((9H-fluoren-9-yl)methoxy)carbonyl)amino)propanoate)], the MIC turned out to be 0.25 µg/mL in series [1] (setting [11]); 0.262 µM in series [1] (setting [12]); 0.5 µg/mL in [2] (setting [13]); 0.524 µM in [2] (setting [14]); 0.25 µg/mL in [4] (18 h); 0.262 µM in series [4]. Besides, the MIC was found to be 0.5 µg/mL in series [5] (setting [15]), 0.524 µM in series [5] (setting [16]), 1 µg/mL in series [9] (18 h) and 1.05 µM in [9]. Further, the “Potency (%): % inhibition of nitric oxide production relative to lipopolysaccharide-stimulated macrophages” value in series [3] amounted to 20.22%. For the same molecule, the “Nitric oxide … (average ± SD)” value in [3] is 21.79 ± 2.71 µM. Also, the activity at 100 µM in series [6] came out at 78.3 ± 5.1%; in series [7] it was 73.6 ± 2.2%; in series [8], 96.9 ± 3.2%. The viability at 100 µM with MCF-7 cells came to 99.2 ± 3.65%. Besides, the “Stimulation Index (average ± SD)” value in series [10] worked out at 2.22 ± 0.41.

With `COc1cc(/C=C/C(=O)CC(=O)/C=C/c2ccc(OC(=O)[C@H](Cc3ccccc3)NC(=O)OCc3ccccc3)c(OC)c2)ccc1OC(=O)[C@H](Cc1ccccc1)NC(=O)OCc1ccccc1` [Cbz-Phe-Cur, ((1E,6E)-3,5-dioxohepta-1,6-diene-1,7-diyl)bis(2-methoxy-4,1-phenylene) (2S,2′S)-bis(2-(((benzyloxy)carbonyl)amino)-3-phenylpropanoate)], the MIC was determined as 0.25 µg/mL in series [1] (setting [11]); 0.269 µM in series [1] (setting [12]); 0.125 µg/mL in series [2] (setting [13]); 0.134 µM in series [2] (setting [14]); 0.125 µg/mL in series [4] (18 h); 0.134 µM in series [4]. In addition, the MIC stood at 0.125 µg/mL in [5] (setting [15]), 0.134 µM in series [5] (setting [16]), 2 µg/mL in [9] (18 h) and 2.15 µM in [9]. Besides, the “Potency (%): % inhibition of nitric oxide production relative to lipopolysaccharide-stimulated macrophages” value in [3] is reported as 3.60%. Also, in series [3], the “Nitric oxide … (average ± SD)” value was 26.33 ± 0.52 µM. For the same molecule, the activity at 100 µM came out at 99.6 ± 8.7% in series [6], 69.3 ± 3% in [7] and 96.4 ± 4% in series [8]. The “Percentage … (average ± SD)” value in the series with MCF-7 cells is on record as 43.40 ± 4.74. For the same molecule, the viability at 100 µM in the series on MCF-7 cells turned out to be 105 ± 4.5%. The “Stimulation Index (average ± SD)” value in series [10] is reported as 2.91 ± 0.13. Further, the “splenocyte proliferation, fold relative to untreated control cells” value in series [10] (in the presence of PHA, text of b265) was determined as 3.81 fold.
